Data from patent publication US4797415A, “Benzofuran derivatives and use thereof for treating hyperuricemia” (Kotobuki Seiyaku Company Limited, priority 1982, dated 1989).
Read-outs that look alike come from different tables or passages of the source.

Tests used:
in vivo = settings: mouse, po, p.o. in mice
From the text: In general, the compounds related to this invention have a potent uriosuric activiity and some of them are considered promising for clinical use. The toxicity of these compounds is much lower than that of the typical uricosuric agent: benzbromarone.

phenol red retention = test: Uricosuric activity by phenol red method in rats; format: in vivo; settings: p.o. 100 mg/kg
Protocol: (§1) Blood samples were collected from the retro-orbital plexus into heparinized capillary tubes 60 minutes after the phenol red injection. The retention of phenol red in circulation was determined according to the method described in J. Med. Pharmaceu.
The same test of uricosuric activity was applied to rats.

[1] = system: phenol red retention in circulation; test: Uricosuric activity by phenol red retention test in mice; format: in vivo, male mice; settings: Mus musculus, 1 h
Protocol: as §1
Benzobromarone was administered subcutaneously to mice in an amount of 200 mg./kg. as a control or standard.

[2] = po, mice, p.o. 200 mg/kg, 30 min before 75 mg/kg phenol red, blood 60 min after phenol red, read-out: phenol red retention, percentage by comparison with the control group, P.O. (200 mg/kg)
[3] = sc, mice, s.c. 200 mg/kg, 30 min before 75 mg/kg phenol red, blood 60 min after phenol red, read-out: phenol red retention, percentage by comparison with the control group, S.C. (200 mg/kg)

Compound	LD50 (in vivo)	Phenol Red Retention % in Rats 100 mg/kg (p.o.) (phenol red retention)	response vs control in vivo at 200 mg/kg ([1]; sc, read-out: phenol red retention, percentage by comparison with the control group, S.C. (200 mg/kg))	response vs control in vivo at 200 mg/kg [1, 2]	response vs control in vivo at 200 mg/kg [1, 3]
CCc1oc2ccccc2c1C(=O)c1cc(Br)c(O)c(Br)c1 [Benzbromarone, benzbromarone, reference compound]	361 mg/kg	163.9 ± 25.0%	184%	–	–
CCc1oc2ccccc2c1C(=O)c1ccc(OCC(=O)O)c(C)c1 [Compound 25, 2-methyl-4-(2-ethyl-3-benzofuroyl)phenoxyacetic acid]	–	208.1 ± 27.0%	–	200 ± 25%	189 ± 27.8%
CCc1oc2ccccc2c1C(=O)c1ccc(OCC(=O)O)cc1 [Compound 3, 4-(2-ethyl-3-benzofuroyl)phenoxyacetic acid]	2110 mg/kg	194.6 ± 29.7%	–	175 ± 15.5%	169 ± 18.1%
CCc1oc2ccccc2c1C(=O)c1cc(C)c(OCC(=O)O)cc1C [Compound 39]	–	175.7 ± 21.6%	–	410 ± 28.6%	–
